From patent US8552002B2 (Novartis AG, priority 2004, dated 2013)

Experiments:
Format in all cases: biochemical
KDR = target: T1, KDR (Homo sapiens, UniProt P35968); assay: Inhibitory activity against KDR (VEGF-R2), in vitro data of Examples 170 and 207; settings: 10 μM; Examples 1 to 169; read-out: KDR inhibition at 10 μM
T1 construct: expressed in transfected cells; host or cells: CHO cells
Experimental: (Controls comprise medium without test compounds). After two hours of incubation at 37° C., recombinant VEGF is added; the final VEGF concentration is 20 ng/ml. After a further five minutes incubation at 37° C., the cells are washed twice with ice-cold PBS (phosphate-buffered saline) and immediately lysed in 100 μl lysis buffer per well. The lysates are then centrifuged to remove the cell nuclei, and the protein concentrations of the supernatants are determined using a commercial protein assay (BIORAD). The lysates can then either be immediately used or, if necessary, stored at −20° C. […] The plates are then washed and the remaining free protein-binding sites are saturated with 3% TopBlock® (Juro, Cat. # TB232010) in phosphate buffered saline with Tween 20® (polyoxyethylen(20)sorbitane monolaurate, ICI/Uniquema) (PBST). The cell lysates (20 μg protein per well) are then incubated in these plates overnight at 4° C. together with an antiphosphotyrosine antibody coupled with alkaline phosphatase (PY20:AP from Zymed). […] The luminescence is measured in a Packard Top Count Microplate Scintillation Counter.

FGFR3 (K650E) = target: T2, FGFR3 (K650E) (Homo sapiens, UniProt P22607, K650E); assay: Recombinant GST-FGFR-3-K650E tyrosine kinase assay (33P into poly(Glu,Tyr)); settings: 10 μM; Examples 1 to 169; read-out: FGFR3 (K650E) inhibition at 10 μM
T2 construct: amino acids 411-806 of the cytoplasmic domain of human FGFR-3, N-terminally fused to GST; made in house; host or cells: Sf9 insect cells (baculovirus)

Tek = target: T3, Tek (Homo sapiens, UniProt Q02763); assay: Recombinant GST-Tek (Tie-2) tyrosine kinase assay (33P into poly(Glu,Tyr)); settings: Examples 1 to 169
T3 construct: amino acids 773-1124 of the cytoplasmic kinase domain of human Tek, N-terminally fused to GST; made in house; host or cells: Sf9 insect cells (baculovirus)
Text: (Tie-2/Tek): The baculovirus donor vector pFbacG01 was used to generate a recombinant baculovirus that expressed the amino acid region amino acids 773-1124 of the cytoplasmic kinase domain of human Tek, N-terminally fused to GST (Provided by Dr. Marmé, Institute of Molecular Medicine, Freiburg, Germany based on a Research Collaboration). Tek was recloned into the pFbacG01 transfer vector by EcoRI excision and ligation into EcoRI digested pFbacG01 (FBG-Tie2/Tek).
Production of virus: Transfer vectors containing the kinase domains were transfected into the DH10Bac cell line (GIBCO) and plated on selective agar plates. Colonies without insertion of the fusion sequence into the viral genome (carried by the bacteria) are blue. Single white colonies were picked and viral DNA (bacmid) isolated from the bacteria by standard plasmid purification procedures. Sf9 cells or Sf21 cells were then transfected in 25 cm^2 flasks with the viral DNA using Cellfectin reagent.
Determination of small scale protein expression in Sf9 cells: Virus containing media was collected from the transfected cell culture and used for infection to increase its titer. Virus containing media obtained after two rounds of infection was used for large-scale protein expression. For large-scale protein expression 100 cm^2 round tissue culture plates were seeded with 5×10^7 cells/plate and infected with 1 mL of virus-containing media (approx. 5 MOIs). After 3 days the cells were scraped off the plate and centrifuged at 500 rpm for 5 min. Cell pellets from 10-20, 100 cm^2 plates, were resuspended in 50 mL of ice-cold lysis buffer (25 mMTris-HCl, pH7.5, 2 mMEDTA, 1% NP-40, 1 mM DTT, 1 mMP MSF). The cells were stirred on ice for 15 min and then centrifuged at 5000 rpms for 20 min.
Purification of GST-tagged proteins: The centrifuged cell lysate was loaded onto a 2 mL glutathione-sepharose column and washed three times with 10 mL of 25 mM Tris-HCl, pH 7.5, 2 mM EDTA, 1 mM DTT, 200 mM NaCl. The GST-tagged proteins were then eluted by 10 applications (1 mL each) of 25 mM Tris-HCl, pH 7.5, 10 mM reduced-glutathione, 100 mM NaCl, 1 mM DTT, 10% Glycerol and stored at −70° C.
Measure of enzyme activity: Tyrosine protein kinase assays with either purified GST-Ret, GST-Tek or GST-FGFR-3-K650E were carried out in a final volume of 30 μL with final concentrations of the following components: Ret included 15 ng of GST-Ret, 20 mM Tris-HCl, pH 7.5, 1 mM MnCl2, 10 mM MgCl2, 1 mM DTT, 3 μg/mL poly(Glu,Tyr) 4:1, 1% DMSO and 2.0 μM ATP (γ-[^33P]-ATP 0.1 μCi). Tek included 150 ng of GST-Tek, 20 mM Tris-HCl, pH 7.5, 3 mM MnCl2, 3 mM MgCl2, 1 mM DTT, 0.01 mM Na3VO4, 250 μg/mL PEG 20'000, 10 μg/mL poly(Glu,Tyr) 4:1, 1% DMSO and 4.0 μM ATP (γ-[^33P]-ATP 0.1 μCi). FGFR-3-K650E included 10 ng of GST-FGFR-3-K650E, 20 mM Tris-HCl, pH 7.5, 3 mM MnCl2, 3 mM MgCl2, 1 mM DTT, […], 10 μg/mL poly(Glu,Tyr) 4:1, 1% DMSO and 4.0 μM ATP (γ-[^33P]-ATP 0.1 μCi).The activity was assayed in the presence or absence of inhibitors, by measuring the incorporation of ^33P from [γ^33P] ATP into poly(Glu,Tyr) 4:1. The assay was carried out in 96-well plates at ambient temperature for 30 min under conditions described below and terminated by the addition of 50 μL of 125 mM EDTA. Subsequently, 60 μL of the reaction mixture were transferred onto Immobilon-PVDF membrane (Millipore) previously soaked for 5 min with methanol, rinsed with water, then soaked for 5 min with 0.5% H3PO4 and mounted on vacuum manifold with disconnected vacuum source. After spotting all samples, vacuum was connected and each well rinsed with 200 μL 0.5% H3PO4. Membranes were removed and washed 4× on a shaker with 1.0% H3PO4, once with ethanol. Membranes were counted after drying at ambient temperature, mounting in Packard TopCount 96-well frame, and addition of 10 μL/well of Microscint™ (Packard). […]

T3 sequence (Q02763 773-1124): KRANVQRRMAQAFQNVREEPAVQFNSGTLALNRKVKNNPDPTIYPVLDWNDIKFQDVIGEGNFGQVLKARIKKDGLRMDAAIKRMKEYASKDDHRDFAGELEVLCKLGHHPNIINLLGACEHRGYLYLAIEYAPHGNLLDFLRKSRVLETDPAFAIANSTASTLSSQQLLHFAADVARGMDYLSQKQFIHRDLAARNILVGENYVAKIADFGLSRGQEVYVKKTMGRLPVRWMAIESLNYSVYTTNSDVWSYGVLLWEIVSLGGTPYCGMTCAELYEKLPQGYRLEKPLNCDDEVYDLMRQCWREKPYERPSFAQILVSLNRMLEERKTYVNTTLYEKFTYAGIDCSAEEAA
T2 sequence (P22607 411-806 K650E): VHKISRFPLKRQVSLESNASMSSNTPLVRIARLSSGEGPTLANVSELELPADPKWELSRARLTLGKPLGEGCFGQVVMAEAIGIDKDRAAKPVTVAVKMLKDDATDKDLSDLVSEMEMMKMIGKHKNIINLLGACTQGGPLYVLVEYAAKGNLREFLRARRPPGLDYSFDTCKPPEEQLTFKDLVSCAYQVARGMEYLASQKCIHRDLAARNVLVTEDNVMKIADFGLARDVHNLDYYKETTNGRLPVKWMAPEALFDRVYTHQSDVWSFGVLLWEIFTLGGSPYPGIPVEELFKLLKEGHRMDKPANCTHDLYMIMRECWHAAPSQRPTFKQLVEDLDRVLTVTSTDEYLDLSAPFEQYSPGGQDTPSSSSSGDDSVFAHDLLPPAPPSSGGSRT
T1 sequence (P35968 20-1356): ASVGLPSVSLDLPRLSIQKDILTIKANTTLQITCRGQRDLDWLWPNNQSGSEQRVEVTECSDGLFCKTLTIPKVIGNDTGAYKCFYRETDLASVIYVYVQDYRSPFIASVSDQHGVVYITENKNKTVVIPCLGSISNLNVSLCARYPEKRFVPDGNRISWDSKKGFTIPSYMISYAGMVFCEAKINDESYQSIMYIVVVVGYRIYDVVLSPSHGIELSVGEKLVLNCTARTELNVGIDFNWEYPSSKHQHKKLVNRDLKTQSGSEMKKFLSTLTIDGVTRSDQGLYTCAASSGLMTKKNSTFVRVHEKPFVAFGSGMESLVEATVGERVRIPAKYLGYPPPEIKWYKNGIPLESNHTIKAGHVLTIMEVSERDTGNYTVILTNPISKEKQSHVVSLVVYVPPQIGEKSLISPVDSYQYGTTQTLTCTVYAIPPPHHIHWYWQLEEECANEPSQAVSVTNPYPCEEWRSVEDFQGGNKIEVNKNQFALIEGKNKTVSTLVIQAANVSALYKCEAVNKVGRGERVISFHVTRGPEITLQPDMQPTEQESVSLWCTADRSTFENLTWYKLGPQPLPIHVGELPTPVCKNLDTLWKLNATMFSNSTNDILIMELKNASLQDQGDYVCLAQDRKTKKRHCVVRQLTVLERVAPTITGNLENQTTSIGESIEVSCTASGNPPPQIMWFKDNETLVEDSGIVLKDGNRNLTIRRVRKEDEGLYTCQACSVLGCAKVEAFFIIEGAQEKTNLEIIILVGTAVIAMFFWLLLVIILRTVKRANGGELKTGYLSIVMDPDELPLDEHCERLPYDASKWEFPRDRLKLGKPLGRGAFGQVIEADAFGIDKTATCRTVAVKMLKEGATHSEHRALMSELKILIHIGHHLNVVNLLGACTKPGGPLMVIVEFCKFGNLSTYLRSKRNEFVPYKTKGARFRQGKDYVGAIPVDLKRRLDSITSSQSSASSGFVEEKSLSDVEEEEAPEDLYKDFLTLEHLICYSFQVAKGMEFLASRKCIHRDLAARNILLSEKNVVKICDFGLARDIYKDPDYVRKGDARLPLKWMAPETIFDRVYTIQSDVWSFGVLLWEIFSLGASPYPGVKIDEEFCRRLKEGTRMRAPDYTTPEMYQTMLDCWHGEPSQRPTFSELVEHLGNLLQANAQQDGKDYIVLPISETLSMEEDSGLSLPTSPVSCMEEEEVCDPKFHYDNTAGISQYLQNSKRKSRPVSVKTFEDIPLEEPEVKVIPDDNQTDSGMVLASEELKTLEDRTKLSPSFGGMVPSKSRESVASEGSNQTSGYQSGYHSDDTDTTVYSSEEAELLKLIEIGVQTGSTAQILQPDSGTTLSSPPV

Row | inhibition at 10 µM (KDR) [%] | inhibition at 10 µM (FGFR3 (K650E)) [%] | inhibition at 10 µM (Tek) [%] | Structure (SMILES)
1 | 67 to 100 | 27 to 100 | 12 to 100 | COc1ccc(Cl)c(NC(=O)N(C)c2cc(Nc3ccc(CN4CCN(C)CC4)cc3)ncn2)c1Cl [Example 62, 3-(2,6-Dichloro-3-methoxy-phenyl)-1-methyl-1-{6-[4-(4-methyl-piperazin-1-ylmethyl)-phenylamino]-pyrimidin-4-yl}-urea]
2 | 67 to 100 | 27 to 100 | 12 to 100 | O=C(Nc1cccc(Cl)c1)Nc1cc(Nc2cccc(Cl)c2)ncn1 [Example 135, 1-(3-Chloro-phenyl)-3-[6-(3-chloro-phenylamino)-pyrimidin-4-yl]-urea]
3 | 67 to 100 | 27 to 100 | 12 to 100 | COc1cc(OC)c(Cl)c(NC(=O)N(C)c2cc(Nc3ccc(OCCCN4CCN(C)CC4)cc3)ncn2)c1Cl [Example 146, 3-(2,6-Dichloro-3,5-dimethoxy-phenyl)-1-methyl-1-(6-{4-[3-(4-methyl-piperazin-1-yl)-propoxy]-phenylamino}-pyrimidin-4-yl)-urea]
4 | 67 to 100 | 27 to 100 | 12 to 100 | COc1ccc(NC(=O)Nc2cc(Nc3cccc(N4CCN(C)CC4)c3)ncn2)cc1Cl [Example 25, 1-(3-Chloro-4-methoxy-phenyl)-3-{6-[3-(4-methyl-piperazin-1-yl)-phenyl-amino]-pyrimidin-4-yl}-urea]
5 | 67 to 100 | 27 to 100 | 12 to 100 | CCN1CCN(Cc2ccc(Nc3cc(N(C)C(=O)Nc4c(Cl)c(OC)cc(OC)c4Cl)ncn3)cc2)CC1 [Example 149, 3-(2,6-Dichloro-3,5-dimethoxy-phenyl)-1-{6-[4-(4-ethyl-piperazin-1-ylmethyl)-phenylamino]-pyrimidin-4-yl}-1-methyl-urea]
6 | 67 to 100 | 27 to 100 | 12 to 100 | COc1cc(OC)c(Cl)c(NC(=O)N(C)c2cc(Nc3ccc(C(F)(F)F)nc3)ncn2)c1Cl [Example 154, 3-(2,6-Dichloro-3,5-dimethoxy-phenyl)-1-methyl-1-[6-(6-trifluoromethyl-pyridin-3-ylamino)-pyrimidin-4-yl]-urea]
7 | 67 to 100 | 27 to 100 | 12 to 100 | COc1ccc(NC(=O)Nc2cc(Nc3ccc(N4CCN(C)CC4)cc3)ncn2)cc1OC [Example 30, 1-(3,4-Dimethoxy-phenyl)-3-{6-[4-(4-methyl-piperazin-1-yl)-phenyl-amino]-pyrimidin-4-yl}-urea]
8 | 67 to 100 | 27 to 100 | 12 to 100 | COc1cc(NC(=O)Nc2cc(Nc3cccc(OCCN(C)C)c3)ncn2)c(Cl)c(OC)c1 [Example 43, 1-(2-Chloro-3,5-dimethoxy-phenyl)-3-{6-[3-(2-dimethylamino-ethoxy)-phenylamino]-pyrimidin-4-yl}-urea]
9 | 67 to 100 | 27 to 100 | 12 to 100 | COc1cc(OC)c(Cl)c(NC(=O)Nc2cc(Nc3cccc(CN(C)C)c3)ncn2)c1Cl [Example 157, 1-(2,6-Dichloro-3,5-dimethoxy-phenyl)-3-[6-(3-dimethylaminomethyl-phenylamino)-pyrimidin-4-yl]-urea]
10 | 67 to 100 | 27 to 100 | 12 to 100 | Cc1cccc(C)c1NC(=O)Nc1cc(Nc2cccc(Cl)c2)ncn1 [Example 140, 1-[6-(3-Chloro-phenylamino)-pyrimidin-4-yl]-3-(2,6-dimethyl-phenyl)-urea]
11 | 67 to 100 | 27 to 100 | 12 to 100 | CN(C)c1cccc(Nc2cc(NC(=O)Nc3c(Cl)cccc3Cl)ncn2)c1 [Example 119, 1-(2,6-Dichloro-phenyl)-3-[6-(3-dimethylamino-phenylamino)-pyrimidin-4-yl]-urea]
